Assay results: paper PMC6010099, “Synthesis and antitumor activity of novel 2, 3-didithiocarbamate substituted naphthoquinones as inhibitors of pyruvate kinase M2 isoform” (Journal of Enzyme Inhibition and Medicinal Chemistry, 2017)
Read-outs that look alike come from different tables or passages of the source.

Legend:
PKM2 = target: T1, PKM2 (Homo sapiens, UniProt P14618); assay: PKM2 activity assay (fluorescent pyruvate kinase-lactate dehydrogenase coupled assay); assay type: biochemical; settings: recombinant human PKM2, fluorescent PK-LDH coupled assay; read-out: IC50 ± SD, PKM2 inhibitory activity
T1 construct: His tag (N); made in house; host or cells: Escherichia coli BL21
Experimental: Human cDNA for PKM2 was cloned into pET28a^+ with a N-terminal His tag and purified from Escherichia coli strain BL21 (Invitrogen) using Ni-Agarose beads (Qiagen) as described previously.
Pyruvate kinase activity was measured with a fluorescent pyruvate kinase-lactate dehydrogenase coupled assay as previously described.
We first tested the effect of compound 3a-3h on PKM2 activity using a fluorescent PK-LDH coupled assay according to a previously reported method. Shikonin, which is a known inhibitor of PKM2, was used as the positive control. […] The preliminary SAR can be summarised as follows. The amine moiety of target compounds greatly influenced PKM2 inhibitory activity. Introduction of a short chain N, N-dimethylamine reduced the inhibitory activity (3b vs. 3c and 3d). When the n-propyl amine in 3d was replaced by allyl amine (3e), the inhibitory activity was lowered. […] Introduction of a sulphur atom therefore contributed to improvement of PKM2 inhibitory activity.

HCT116 = assay: MTS cell proliferation assay, HCT116; assay type: cell-based, human; settings: 48 h, read-out: IC50 ± SD, in vitro cytotoxicity HCT116
Experimental: (§1) Cell lines were grown with routine culture techniques in RPMI 1640 supplemented with 9% foetal bovine serum at 37 °C in 5% CO2.
(§2) Cells were plated in 96-well plates at a density of 5000 cells per well. Twelve hours after seeding, cells were treated with various concentrations of test compounds for 48 h. Cell viability was assessed with the MTS assay (Promega) according to the manufacturer's instruction.
(§3) To determine the efficiency of 3a-3h as antitumour agents, we assessed the in vitro cytotoxicity of 3a-3h using several different tumour cell lines derived from human colon cancer (HCT116), breast cancer (MCF7), cervical cancer (Hela) and lung cancer (H1299) and mouse melanoma (B16). […] This discrepancy may be due to the different properties of these compounds such as cell penetration that is important in the cellular assay.

MCF7 = assay: MTS cell proliferation assay, MCF7; assay type: cell-based, human; settings: MCF7 breast cancer, 48 h, read-out: IC50 ± SD, in vitro cytotoxicity MCF7
Experimental: as §1, §2, §3

Hela = assay: MTS cell proliferation assay, Hela; assay type: cell-based, human; settings: Hela cervical cancer, 48 h, read-out: IC50 ± SD, in vitro cytotoxicity Hela
Experimental: as §1, §2, §3

H1299 = assay: MTS cell proliferation assay, H1299; assay type: cell-based, human; settings: 48 h, read-out: IC50 ± SD, in vitro cytotoxicity H1299
Experimental: as §1, §2, §3

B16 = assay: MTS cell proliferation assay, B16; assay type: cell-based; settings: B16 mouse melanoma, 48 h, read-out: IC50 ± SD, in vitro cytotoxicity B16
Experimental: as §1, §2, §3

[1] = tested on: HCT116, MCF7, Hela, H1299 and B16 cells; assay: MTS cell proliferation assay, range over the tumour cell panel; assay type: cell-based; settings: range over the five cell lines, read-out: IC50 values against HCT116, MCF7, Hela, H1299 and B16 cells (range over cell lines)
Experimental: as §1, §2, §3

BEAS-2B cells = assay: Cytotoxicity in normal BEAS-2B cells; assay type: cell-based; settings: normal human bronchial epithelial cells
Experimental: as §1, §2
To further explore the selectivity of target compounds against cancer cells, we tested the cytotoxicity of representative compound 3f in BEAS-2B cells derived from normal human bronchial epithelial cells.

[2] = Homo sapiens, HCT-116, HCT116 colon cancer
[3] = Homo sapiens, NCI-H1299, H1299 lung cancer

T1 sequence (P14618 whole entry): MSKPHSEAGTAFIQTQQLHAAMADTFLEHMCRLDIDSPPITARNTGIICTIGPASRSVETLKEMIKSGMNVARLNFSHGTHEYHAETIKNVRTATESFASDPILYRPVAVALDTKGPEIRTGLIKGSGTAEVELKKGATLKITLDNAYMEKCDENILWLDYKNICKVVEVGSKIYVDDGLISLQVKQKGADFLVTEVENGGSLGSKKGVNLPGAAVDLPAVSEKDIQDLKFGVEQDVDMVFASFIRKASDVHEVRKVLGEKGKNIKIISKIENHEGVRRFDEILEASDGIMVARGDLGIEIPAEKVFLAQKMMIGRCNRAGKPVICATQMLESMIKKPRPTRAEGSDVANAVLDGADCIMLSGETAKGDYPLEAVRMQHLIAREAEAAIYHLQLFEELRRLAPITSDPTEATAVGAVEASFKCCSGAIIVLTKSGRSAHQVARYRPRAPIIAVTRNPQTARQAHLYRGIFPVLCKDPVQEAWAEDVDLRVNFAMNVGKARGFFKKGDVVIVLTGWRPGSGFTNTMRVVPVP

**Q.** Which IC50 (PKM2) does the source give for `O=C1C(CSC(=S)N2CCOCC2)=C(CSC(=S)N2CCOCC2)C(=O)c2ccccc21` [3a, dimorpholine-dithiocarbamic acid 3-dimorpholinethiocarbamoylsulphanylmethyl-1,4-dioxo-1,4-dihydro-naphthalen-2-ylmethyl ester] here?
**A.** The IC50 was 2640 ± 980 nM.

**Q.** What about the IC50 (HCT116; HCT116 colon cancer) of the same compound?
**A.** The IC50 was 214 ± 3 nM.

**Q.** And the IC50 (MCF7)?
**A.** Its IC50 is 340 ± 3 nM.

**Q.** What about the IC50 (Hela) of the same compound?
**A.** Its IC50 is 337 ± 54 nM.

**Q.** And the IC50 (H1299; H1299 lung cancer)?
**A.** The IC50 was 331 ± 91 nM.

**Q.** What about the IC50 (B16) of the same compound?
**A.** Its IC50 is 272 ± 10 nM.

**Q.** Which IC50 (PKM2) does the source give for `CN(C)C(=S)SCC1=C(CSC(=S)N(C)C)C(=O)c2ccccc2C1=O` [3b, dimethyl-dithiocarbamic acid 3-dimethylthiocarbamoylsulphanylmethyl-1,4-dioxo-1,4-dihydro-naphthalen-2-ylmethyl ester] here?
**A.** Its IC50 is over 10000 nM.

**Q.** And the IC50 (HCT116; [2])?
**A.** Its IC50 is 88 ± 4 nM.

**Q.** And the IC50 (MCF7; Homo sapiens)?
**A.** Its IC50 is 69 ± 9 nM.

**Q.** What about the IC50 (Hela; Homo sapiens) of the same compound?
**A.** Its IC50 is 122 ± 17 nM.

**Q.** And the IC50 (H1299; [3])?
**A.** The IC50 was 109 ± 2 nM.

**Q.** And the IC50 (B16)?
**A.** Its IC50 is 104 ± 11 nM.

**Q.** What about the IC50 [1] of the same compound?
**A.** The IC50 was 69 to 122 nM.

**Q.** Which results are given for `CCN(CC)C(=S)SCC1=C(CSC(=S)N(CC)CC)C(=O)c2ccccc2C1=O` [3c, diethyl-dithiocarbamic acid 3-diethylthiocarbamoylsulphanylmethyl-1,4-dioxo-1,4-dihydro-naphthalen-2-ylmethyl ester]?
**A.** IC50 (PKM2): 2780 ± 970 nM; IC50 (HCT116; [2]): 93 ± 2 nM; IC50 (MCF7; Homo sapiens): 84 ± 3 nM; IC50 (Hela; Homo sapiens): 251 ± 59 nM; IC50 (H1299; [3]): 144 ± 13 nM; IC50 (B16): 108 ± 10 nM; IC50 [1]: 84 to 251 nM; melting point: 130 to 131 °C

**Q.** With `CCCN(CCC)C(=S)SCC1=C(CSC(=S)N(CCC)CCC)C(=O)c2ccccc2C1=O` [3d, dipropyl-dithiocarbamic acid 3-dipropylthiocarbamoylsulphanylmethyl-1,4-dioxo-1,4-dihydro-naphthalen-2-ylmethyl ester] as the compound, how does the IC50 (PKM2) read?
**A.** The IC50 was 3080 ± 1230 nM.

**Q.** What about the IC50 (HCT116; [2]) of the same compound?
**A.** The IC50 was 597 ± 14 nM.

**Q.** And the IC50 (MCF7; Homo sapiens)?
**A.** Its IC50 is over 10000 nM.

**Q.** And the IC50 (Hela; Homo sapiens)?
**A.** Its IC50 is over 10000 nM.

**Q.** And the IC50 (H1299; [3])?
**A.** The IC50 was 830 ± 162 nM.

**Q.** What about the IC50 (B16) of the same compound?
**A.** Its IC50 is 787 ± 203 nM.

**Q.** What about the melting point of the same compound?
**A.** Its melting point is 111 to 112 °C.

**Q.** For `C=CCN(CC=C)C(=S)SCC1=C(CSC(=S)N(CC=C)CC=C)C(=O)c2ccccc2C1=O` [3e, diallyl-dithiocarbamic acid 3-diallylthiocarbamoylsulphanylmethyl-1,4-dioxo-1,4-dihydro-naphthalen-2-ylmethyl ester], which IC50 (PKM2) is on record?
**A.** Its IC50 is over 10000 nM.

**Q.** What about the IC50 (HCT116; [2]) of the same compound?
**A.** Its IC50 is 742 ± 45 nM.

**Q.** And the IC50 (MCF7; Homo sapiens)?
**A.** Its IC50 is 1090 ± 421 nM.

**Q.** And the IC50 (Hela; Homo sapiens)?
**A.** The IC50 was 3460 ± 3190 nM.

**Q.** And the IC50 (H1299; [3])?
**A.** The IC50 was 1020 ± 111 nM.

**Q.** What about the IC50 (B16) of the same compound?
**A.** The IC50 was 709 ± 27 nM.

**Q.** Which results are given for `O=C1C(CSC(=S)N2CCSCC2)=C(CSC(=S)N2CCSCC2)C(=O)c2ccccc21` [3f, dithiamorpholine-dithiocarbamic acid 3-dithiamorpholinethiocarbamoylsulphanylmethyl-1,4-dioxo-1,4-dihydro-naphthalen-2-ylmethyl ester]?
**A.** IC50 (PKM2): 1050 ± 170 nM; IC50 (HCT116; HCT116 colon cancer): 189 ± 35 nM; IC50 (MCF7): 194 ± 55 nM; IC50 (Hela): 412 ± 18 nM; IC50 (H1299; H1299 lung cancer): 206 ± 18 nM; IC50 (B16): 189 ± 6 nM; IC50 (BEAS-2B cells): 11.5 ± 0.62 µM

**Q.** With `O=C1C(CSC(=S)N2CCCC2)=C(CSC(=S)N2CCCC2)C(=O)c2ccccc21` [3g, dipyrrolidine-dithiocarbamic acid 3-dipyrrolidinethiocarbamoylsulphanylmethyl-1,4-dioxo-1,4-dihydro-naphthalen-2-ylmethyl ester] as the compound, how does the IC50 (PKM2) read?
**A.** The IC50 was 2330 ± 520 nM.

**Q.** And the IC50 (HCT116; HCT116 colon cancer)?
**A.** The IC50 was 164 ± 3 nM.

**Q.** And the IC50 (MCF7)?
**A.** Its IC50 is 638 ± 20 nM.

**Q.** And the IC50 (Hela)?
**A.** The IC50 was 298 ± 53 nM.

**Q.** And the IC50 (H1299; H1299 lung cancer)?
**A.** The IC50 was 247 ± 15 nM.

**Q.** And the IC50 (B16)?
**A.** The IC50 was 159 ± 2 nM.

**Q.** Which IC50 (PKM2) does the source give for `O=C1C(CSC(=S)N2CCSC2)=C(CSC(=S)N2CCSC2)C(=O)c2ccccc21` [3h, dithiazolidine-dithiocarbamic acid 3-dithiazolidinethiocarbamoylsulphanylmethyl-1,4-dioxo-1,4-dihydro-naphthalen-2-ylme-thyl ester] here?
**A.** Its IC50 is 960 ± 180 nM.

**Q.** What about the IC50 (HCT116; HCT116 colon cancer) of the same compound?
**A.** Its IC50 is 374 ± 15 nM.

**Q.** What about the IC50 (MCF7) of the same compound?
**A.** The IC50 was 234 ± 45 nM.

**Q.** And the IC50 (Hela)?
**A.** The IC50 was 1130 ± 80 nM.

**Q.** What about the IC50 (H1299; H1299 lung cancer) of the same compound?
**A.** The IC50 was 306 ± 8 nM.

**Q.** What about the IC50 (B16) of the same compound?
**A.** The IC50 was 317 ± 22 nM.

**Q.** For `CC1=C(CSC(=S)N2CCCCC2)C(=O)c2ccccc2C1=O` [3k, reference compound], which IC50 (PKM2) is on record?
**A.** The IC50 was 2950 ± 530 nM.

**Q.** What does the source list for `CC(C)=CC[C@@H](O)C1=CC(=O)c2c(O)ccc(O)c2C1=O` [Shikonin, reference compound]?
**A.** IC50 (PKM2): 8820 ± 2620 nM; IC50 (HCT116; [2]): 1060 ± 182 nM; IC50 (MCF7; Homo sapiens): 2400 ± 346 nM; IC50 (Hela; Homo sapiens): 813 ± 81 nM; IC50 (H1299; [3]): 954 ± 186 nM; IC50 (B16): 1220 ± 155 nM
